Data from patent EP4796126A1, “COMBINATION OF CLDN18_2 ANTIBODY AND CHEMOTHERAPEUTIC DRUG AND USE THEREOF” (Jiangsu Aosaikang Biopharmaceutical Co., Ltd., priority 2023, dated 2025).

Columns and labels:
[1] = system: Miapaca2/18.2; assay: Efficacy against subcutaneous xenograft tumors of human pancreatic cancer Miapaca2/18.2 in mice; type: in vivo
Procedure: (§1) NOD-Scid mice (7 weeks old, female) were purchased from Shanghai Lingchang Biotechnology Co., Ltd. Each mouse was subcutaneously inoculated with 1 × 10^7 Miapaca2/18.2 cells. When tumor volume reached 60 mm^3 to 150 mm^3, the mice were grouped according to tumor volume and then the medicaments were administered intraperitoneally (IP) at an injection volume of 0.1 mL per 10 g of body weight.

[2] = system: KATO III/18.2; assay: Efficacy against subcutaneous xenograft tumors of human gastric cancer KATO III/18.2 in mice; type: in vivo, NOD-Scid mice
Procedure: as §1, with “× 10^7 KATO III/18.2 cells. When” for “× 10^7 Miapaca2/18.2 cells. When”, “to tumor volume, and then” for “to tumor volume and then”

Compound	tumor growth inhibition ([1]; Day 14 (first dose Day 0), M5 monoclonal antibody or Human IgG1 10 mg/kg IP BIW 4 times, gemcitabine 75 mg/kg IP Q4D 2 times) [%]	maximum weight loss ([1]; mice, on Day 7) [%]	mice died ([1]; ten mice per group)	tumor growth inhibition ([2]; Day 23 (first dose Day 0), M5 monoclonal antibody or Human IgG1 10 mg/kg IP BIW 6 times, oxaliplatin 8 mg/kg IP Q4D 3 times) [%]	maximum weight losses ([2]; mice, on Day 10) [%]
Nc1ccn([C@@H]2O[C@H](CO)[C@@H](O)C2(F)F)c(=O)n1 [gemcitabine]	53	9.2	one out of ten		
O=C1[O][Pt]2([NH][C@@H]3CCCC[C@H]3[NH]2)[O]C1=O [oxaliplatin]				31	5.5
